Measurements: PubChem BioAssay (NCI)
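Each compound was tested at five concentrations against cells in 96-well plates for 48 hours. GI50 is the concentration that inhibits growth by half. TGI marks complete inhibition of growth.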

How the values were obtained:
Experiment in all cases: inhibition of tumour cell growth, NCI panel, 48 h
NCI-H522 lung = system: NCI-H522 lung
HCT-116 colon = system: HCT-116 colon
SF-295 CNS = system: SF-295 CNS
UACC-62 melanoma = system: UACC-62 melanoma
MCF7 breast = system: MCF7 breast
BT-549 breast = system: BT-549 breast
RPMI-8226 leukemia = system: RPMI-8226 leukemia
NCI-H460 lung = system: NCI-H460 lung
A498 renal = system: A498 renal
NCI-H226 lung = system: NCI-H226 lung

SMILES | TGI (NCI-H522 lung) [µM] | TGI (HCT-116 colon) [µM] | TGI (SF-295 CNS) [µM] | TGI (UACC-62 melanoma) [µM] | TGI (MCF7 breast) [µM] | TGI (BT-549 breast) [µM] | TGI (RPMI-8226 leukemia) [µM] | TGI (NCI-H460 lung) [µM] | TGI (A498 renal) [µM] | TGI (NCI-H226 lung) [µM] | GI50 (NCI-H522 lung) [µM] | GI50 (HCT-116 colon) [µM] | GI50 (SF-295 CNS) [µM] | GI50 (UACC-62 melanoma) [µM] | GI50 (MCF7 breast) [µM] | GI50 (BT-549 breast) [µM] | GI50 (RPMI-8226 leukemia) [µM] | GI50 (NCI-H460 lung) [µM] | GI50 (A498 renal) [µM] | GI50 (NCI-H226 lung) [µM]
O=C1C=C(N2CCN(c3ccccn3)CC2)C(=O)c2c(O)ccc(O)c21 | 41.2 | 10.3 | 51.5 | 16.1 | 18.6 | > 100 | 41.7 | 38.1 | 52.2 | > 56.2 |  |  |  |  |  |  |  |  |  | 
C=CCOC(=O)CCCCCCCCCCCCCCCOC(=O)C1=C(CCC[C@@H](C)O[Si](C)(C)C(C)(C)C)NC(=O)N2[C@H](CC3(CC/C=C\[C@H](CC)O[Si](C(C)C)(C(C)C)C(C)C)OCCO3)CC[C@H]12 | > 100 | > 100 | > 100 | > 100 | > 100 | > 100 | > 100 | > 100 | > 100 | > 100 |  |  |  |  |  |  |  |  |  | 
O=C1CSC2(CC(/C=C/c3ccccc3Br)=NN2c2cccc(S(=O)(=O)O)c2)N1c1nc2ccccc2s1 (stereo not given) | > 100 | > 100 |  | > 100 | > 100 | > 100 | > 100 | > 100 | > 100 | > 100 |  |  |  |  |  |  |  |  |  | 
CC(C)C1CC(CO)(CNc2cc(Cl)nc(N)n2)C1 (stereo not given) | > 100 | > 100 | > 100 | > 100 | > 100 | > 100 | > 100 | > 100 | 65.9 | > 100 |  |  |  |  |  |  |  |  |  | 
COC(=O)C(C(=O)C(=O)NC1Nc2ccc(C)cc2S1)c1nc2ccc(Cl)cc2[nH]c1=O (stereo not given) | > 100 | > 100 | > 100 | > 100 | > 100 | > 100 | > 100 | > 100 | > 100 | > 100 |  |  |  |  |  |  |  |  |  | 
CCOC(=O)c1nc2ccccc2nc1NCc1ccc(Cl)cc1Cl | > 100 | > 100 | > 100 | > 100 | > 100 | > 100 | > 100 | > 100 | > 100 | > 100 |  |  |  |  |  |  |  |  |  | 
C/C(=N\Nc1ccccc1)C(CN(C)C)C(c1ccccc1)c1c(O)c2ccccc2oc1=O (stereo not given) | > 100 | > 100 | > 100 | > 100 | > 100 | > 100 | > 100 | > 100 | > 100 | > 100 |  |  |  |  |  |  |  |  |  | 
C=C1CC(Cn2cc(Br)c(=O)[nH]c2=O)(c2ccc(-c3ccccc3)cc2)OC1=O (stereo not given) | 2.55 | 1.32 | 18.5 | 2.45 | 1.75 | 3.31 | 0.574 | 19.7 | 2.33 | 4.31 |  |  |  |  |  |  |  |  |  | 
COc1cc(-n2cc(-c3cc(O)c(C/C=C(\C)CCC=C(C)C)c(O)c3)nn2)cc2c1O[C@]1(C)CC[C@@H](O)C(C)(C)[C@H]1C2 | 4.35 | 23.5 | 0.122 | 2.98 | 19.2 | 20.5 | 0.475 | 14.9 | 32.8 | 68.4 | 1.19 | 1.15 | 0.028 | 0.23 | 0.338 | 0.974 | 0.0324 | 1.13 | 0.298 | 5.98
c1ccc([P+](c2ccccc2)(c2ccccc2)c2ccc([P+](c3ccccc3)(c3ccccc3)c3ccccc3)cc2)cc1 | > 100 | > 100 | > 100 | > 100 | > 100 | > 100 | > 100 | > 100 | > 100 | > 100 |  |  |  |  |  |  |  |  |  | 
Oc1[nH]c2ccccc2c1/C=c1/cc2c(c(-c3ccc(C(F)(F)F)cc3)n1)=Nc1ccccc1-2 | 14.3 | 10.1 | 28.4 | 21.9 | 5.14 | 15.7 | 13.7 | 10.5 | 38.6 | > 100 | 1.67 | 2.9 | 2.99 | 6.32 | 1.53 | 4.17 | 2.93 | 2.56 | 5.2 | 36.4
CNc1ccc(Cl)cc1S(=O)(=O)c1ccccc1[N+](=O)[O-] | > 100 |  | > 100 | > 100 | > 100 | > 100 | > 100 | > 100 | > 100 | > 100 |  |  |  |  |  |  |  |  |  | 
O=C1CSc2nnc(CCCCCCCCc3nnc4n3NC(=O)CS4)n2N1 | 75.2 | > 100 | > 100 | > 100 | > 100 | > 100 | > 100 | > 100 | > 100 | > 100 |  |  |  |  |  |  |  |  |  | 
CC(C)(C)OC(=O)N1CCc2c(n(C/C=C/c3ccccc3)[nH]c2=O)C1 | > 100 | > 100 | > 100 | > 100 | > 100 | > 100 | > 100 | > 100 | > 100 | > 100 |  |  |  |  |  |  |  |  |  | 
NC(=O)C1=CC2C3C=CC2(O)C(=O)OC3O1 (stereo not given) | 4.31 | 7.41 | 27.1 | 7.74 | 18.5 | 17.3 | > 29.5 | 43.2 | 59.3 | 5.83 |  |  |  |  |  |  |  |  |  | 
O=P(O)(O)CN1CCNCCN(CP(=O)(O)O)CCNCC1 | > 100 | > 100 | > 100 | > 100 | > 100 | > 100 | > 100 | 13.1 | > 100 | > 94.9 |  |  |  |  |  |  |  |  |  | 

SMILES | TGI (NCI-H522 lung) [µM] | TGI (HCT-116 colon) [µM] | TGI (SF-295 CNS) [µM] | TGI (UACC-62 melanoma) [µM] | TGI (MCF7 breast) [µM] | TGI (BT-549 breast) [µM] | TGI (RPMI-8226 leukemia) [µM] | TGI (NCI-H460 lung) [µM] | TGI (A498 renal) [µM] | TGI (NCI-H226 lung) [µM] | GI50 (NCI-H522 lung) [µM] | GI50 (HCT-116 colon) [µM] | GI50 (SF-295 CNS) [µM] | GI50 (UACC-62 melanoma) [µM] | GI50 (MCF7 breast) [µM] | GI50 (BT-549 breast) [µM] | GI50 (RPMI-8226 leukemia) [µM] | GI50 (NCI-H460 lung) [µM] | GI50 (A498 renal) [µM] | GI50 (NCI-H226 lung) [µM]
Cc1c2cccc-2ccc2c1[nH]c1ccccc12 | 3.9 | 4.96 | 5.62 | 3.79 | 12.9 | 9.56 | 8.28 | 3.57 | 28.5 | 3.92 |  |  |  |  |  |  |  |  |  | 
Cn1c(=O)sc2cc(C(=S)N3CCOCC3)ccc21 | > 100 | > 100 | > 100 | > 100 | > 100 | > 100 | > 100 | > 100 | > 100 | > 100 |  |  |  |  |  |  |  |  |  | 
COc1ccc(C=Nc2ccc(-c3nc4ccccc4[nH]3)cc2)cc1OC | > 100 | > 100 | > 100 |  | > 100 | > 100 | > 100 | > 100 | > 100 | > 100 |  |  |  |  |  |  |  |  |  | 
CCN(CC)CCN(C)CCc1ccc(Br)cc1 | > 100 | > 100 | > 100 |  | > 100 | > 100 | > 100 | > 100 | 60.4 | > 100 |  |  |  |  |  |  |  |  |  | 
CCOC(=O)/C(C#N)=C/N(CC)/N=C/c1ccccc1 | > 100 | > 100 | > 100 | > 100 | > 100 | > 100 | > 100 | > 100 | > 100 | > 100 |  |  |  |  |  |  |  |  |  | 
O=C1CC2(CCNCC2)C(=O)N1N1CCOCC1 | > 100 | > 100 | > 100 | > 100 | > 100 | > 100 | > 100 | > 100 | > 100 | > 100 |  |  |  |  |  |  |  |  |  | 
O=[N+]([O-])/C=C/c1cn(CCCCCn2cc(/C=C/[N+](=O)[O-])c3ccccc32)c2ccccc12 | 50.4 | 0.824 | > 43.9 | 31.5 | 1.62 | 6.72 | > 100 | 17.4 | 3.86 | 4.36 |  |  |  |  |  |  |  |  |  | 
CCCNC(=O)CCC(C)[C@H]1CCC2C3C(C[C@H](OC(C)=O)[C@@]21C)[C@@]1(C)CCC2(C[C@H]1C[C@H]3OC(C)=O)OOC1(CCCCC1)OO2 (stereo not given in full) | 1.44 | > 61.5 | 39.7 | > 100 | > 56.1 | 12.4 | 4.68 | 6.83 | 50.1 | > 57.2 |  |  |  |  |  |  |  |  |  | 
CC/C(Cl)=N\OC(=O)Nc1ccc(F)cc1F | 3.65 | 19.1 | > 60 | 32.3 | 44.9 | 6.93 | 3.57 | 85.8 | 74.8 | 34.2 |  |  |  |  |  |  |  |  |  | 
CC(C)=CCC[C@@H](C)c1c2[nH]c3ccccc3sc-2c(C)c(=O)c1=O | 8.6 | 21.8 | 40.6 | 68.6 | > 75 | > 75 | 25 | > 27 | 35.5 | 11.1 |  |  |  |  |  |  |  |  |  | 
COC(=O)c1ccc(/C=C2\CCc3ccccc3C2=O)cc1 | > 100 | > 100 | > 100 | > 100 | > 100 | > 100 | > 100 | > 100 | > 100 | > 100 |  |  |  |  |  |  |  |  |  | 
O=S(=O)(O)C1CCC(O)C2[N-]CCCC21.O=S(=O)(O)C1CCC(O)C2[N-]CCCC21.[Zn+2] (stereo not given) | > 100 | > 100 | > 100 | > 100 | > 100 | > 100 | > 100 | > 100 | > 100 | > 100 |  |  |  |  |  |  |  |  |  | 
CCCCCCCCCCCCCCCCOCC(Cl)COP(=O)(O)OP(=O)(O)OCC1OC(n2cnc3c(N)ncnc32)C(O)C1O (stereo not given) | > 100 | > 100 | > 100 | > 100 | > 100 | > 100 | > 100 | > 100 | > 100 | > 100 |  |  |  |  |  |  |  |  |  | 
CC1=C2NCN(C)N=C2C(C#N)(C#N)C1(C#N)C#N | 28.5 | 57.4 | > 100 | 46.8 | > 70.7 | 44.5 | 37.3 |  | > 100 | > 100 |  |  |  |  |  |  |  |  |  | 
Cc1ccc(/C=C2\CN(C)CC3C2=NC(=S)NC3c2ccc(C)cc2)cc1 (stereo not given) | > 100 | > 100 | > 100 | > 100 | > 100 | > 100 | > 100 | > 100 | > 100 | > 100 |  |  |  |  |  |  |  |  |  | 
